In patent US10472394B2, “Cyclosporine analogue mixtures and their use as immunomodulating agents” (Aurinia Pharmaceuticals Inc., priority 2001, dated 2019):
Values after ≈ are worked out from the molar mass of the structure shown.

Columns and labels:
[1] = tested on: calcineurin phosphatase activity; test: calcineurin (CN) inhibition assay; format: biochemical; conditions: FIG. 11; ISATX247 isomer mixture
Excerpt: The use of cyclosporine derivatives, a class of cyclic polypeptides produced by the fungus Tolypocladium inflatum Gams, is increasing in immunosuppressive therapy due to their preferential effects on T-cell mediated reactions. […] This action is primarily mediated through cyclosporine A-induced inhibition of calcineurin, a phosphatase enzyme found in the cytoplasm of cells (Schreiber and Crabtree, 1992).

[2] = tested on: Transplanted Rat Hearts; test: rat heart transplant model (heterotopic, Wistar Furth to Lewis); format: in vivo
Excerpt: If graft dysfunction was noted during the 30-day post-transplantation period, the animal was sacrificed. If the animal survived longer than 30 days post-transplantation, the test and control articles were discontinued and the animal was allowed to continue until graft dysfunction or up to 100 days post-transplantation.

[3] = tested on: Mouse Islet Allografts; test: islet cell allotransplantation in diabetic mice
Excerpt: Blood glucose was monitored daily until the time of graft failure, as defined by a glucose level greater than 17 mmol/L on two consecutive days.

[4] = tested on: collagen-induced arthritis; test: collagen-induced arthritis model; format: in vivo, mouse
Experimental: Male DBA/1 Lac J mice, kept under virus antibody free conditions, were immunized subcutaneously at 8 to 10 weeks of age with 100 microgram of chick type II collagen, emulsified in Freund's complete adjuvant. […] Animals assigned to the treatment protocol (12/group) were dosed starting on the day of disease onset (˜Day 28) until sacrifice on Day 38.
Evaluated parameters included mortality, serum creatinine, histology, and outcome assessments, such as clinical scoring (visual), hind paw swelling, histological scoring, erosion scoring, and immunohistochemistry.
Erosion scoring was done in a blinded manner by examining sagittal sections of the proximal interphalangeal (PIP) joint of the middle digit for the presence or absence of erosions (defined as demarcated defects in cartilage or bone filled with inflammatory tissue). This approach allowed for comparisons of the same joint.

[5] = tested on: antigen-induced arthritis; test: antigen-induced arthritis model; format: in vivo, rabbit
Experimental: New Zealand White rabbits, maintained under specific pathogen free conditions, were immunized with 10 mg of ovalbumin in saline emulsified with Freund's complete adjuvant that was given intramuscularly and subcutaneously into several sites in the nape of the neck. Fourteen days later, all animals started receiving 2 daily intra-articular injections of 5 mg ovalbumin and 65 ng of human recombinant transforming growth factor 2 in saline.
Animals assigned to the treatment protocol (8/group) were dosed starting on the day of disease onset (˜Day 28) until sacrifice on Day 42.
Evaluated parameters included mortality, body weight, serum creatinine, histology, and outcome assessments such as knee joint swelling, synovial fluid counts, gross postmortem analysis, and histology.

[6] = pharmacokinetics in the rabbit model (i.v.); format: in vivo; conditions: for Area under the curve, mean ± SD / Cmax, mean ± SD: 10 mg/kg/day i.v.
Experimental: (§3) On Days 1 and 7, blood samples were collected prior to drug administration and at 0.5, 1, 2, 4, 8, 12, 18, and 24 hours post-dose to generate a pharmacokinetic profile. Other evaluated parameters included clinical observations, body weight, food consumption, hematology, clinical chemistry, gross pathology, and histopathological examination of selected tissues/organs.
Blood samples were analyzed via high performance liquid chromatography coupled with mass spectrometry (LCMS).

[7] = tested on: lymphocyte proliferation; test: whole blood assay: lymphocyte proliferation; format: cell-based, cynomolgous monkeys; conditions: mitogen stimulated
Experimental: (§1) Lymphocyte proliferation was assessed by tritium-labeled thymidine incorporation and by flow-cytometric analysis of expression of proliferating cell nuclear antigen (PCNA) on cells in SG2M phase. Flow cytometry was also used to assess production of intracellular cytokines by T cells and expression of T lymphocyte activation antigens.

[8] = tested on: production of intracellular cytokines by T cells; test: whole blood assay: intracellular cytokine production by T cells; format: cell-based, cynomolgous monkeys; conditions: mitogen stimulated
Experimental: as §1

[9] = tested on: T lymphocyte activation antigens; test: whole blood assay: expression of T lymphocyte activation antigens; format: cell-based, cynomolgous monkeys; conditions: mitogen stimulated
Experimental: as §1

[10] = repeated-dose oral toxicity studies; format: in vivo, rats, dogs, and primates
[11] = tested on: bacterial reverse mutation; test: in vitro bacterial reverse mutation assay; format: cell-based
Excerpt: (§2) No carcinogenicity studies have been completed to date.

[12] = tested on: chromosome aberration; test: in vitro chromosome aberration assay; format: cell-based
Excerpt: as §2

[13] = tested on: micronucleus; test: in vivo rat micronucleus assay
Excerpt: as §2

[14] = reproductive toxicity studies; format: in vivo, pregnant rats and rabbits
Excerpt: as §2

[15] = 30-day toxicokinetic/toxicity study in the rabbit model
Experimental: as §3

C=C/C=C/C[C@@H](C)[C@@H](O)[C@H]1C(=O)N[C@@H](CC)C(=O)N(C)CC(=O)N(C)[C@@H](CC(C)C)C(=O)N[C@@H](C(C)C)C(=O)N(C)[C@@H](CC(C)C)C(=O)N[C@@H](C)C(=O)N[C@H](C)C(=O)N(C)[C@@H](CC(C)C)C(=O)N(C)[C@@H](CC(C)C)C(=O)N(C)[C@@H](C(C)C)C(=O)N1C [ISATX247]
potency of inhibition of calcineurin phosphatase activity compared to cyclosporine A (as determined by IC50) [1]: ≤ 3 fold
increase of survival time over Cyclosporine A ([2]; 1.75 mg/kg/day): approximately 3 fold
graft function after discontinuation of dosing ([2]; 100 days post-transplant (70 days post discontinuation of dosing)): still had functioning grafts at 100 days post-transplant
Mean Survival ([3]; 1.75 mg/kg/day i.p.): 18.7
Mean Survival ([3]; 10 mg/kg/day i.p.): 19.2
Mean Survival ([3]; 25 mg/kg/day i.p.): 46.4
toxicity compared with cyclosporine A as the dose level increased ([3]; especially apparent at 25 mg/kg/day): less toxic than cyclosporine A
negative erosion scores compared to vehicle group ([4]; 250 μg/mouse i.p.): higher negative erosion scores
development of joint erosions (PIP joints) ([4]; 500 μg/mouse): significantly prevent
negative erosion scores compared to vehicle group ([4]; 500 μg/mouse i.p.): significantly higher
synovial fluid counts ([5]; prevention protocol): significant reductions
synovial histopathological scores compared to vehicle control ([5]; prevention protocol, after 28 days of therapy, s.c.): significant decrease
macroscopic arthritis score ([5]; rabbit, in vivo): significant reduction
potency compared with cyclosporine A in treatment and prevention of arthritis ([5]; rabbit, in vivo): equivalent or potentially more potent than cyclosporine A
synovial histopathological scores of animals with established arthritis compared to vehicle controls ([5]; treatment protocol, 14 days of treatment): Significant amelioration
pharmacokinetic parameters in female rabbits compared with male rabbits ([6]; 10 mg/kg/day, exception: maximum concentration on Day 7): not significantly different
pharmacokinetic parameters compared with cyclosporine A ([6]; male rabbits, 10 mg/kg/day): no statistically significantly differences
Area under the curve, mean ± SD ([6]; male rabbits, Day 1): 5659 ± 1309 ng·h/mL
Cmax, mean ± SD ([6]; male rabbits, Day 1): 1915 ± 149 ng/mL
Area under the curve, mean ± SD ([6]; male rabbits, Day 7): 5697 ± 1373 ng·h/mL
Cmax, mean ± SD ([6]; male rabbits, Day 7): 1959 ± 470 ng/mL
EC50, 3H-thymidine uptake [7]: 0.16054 µg/mL (≈ 0.132 µM)
EC50, PCNA expression ([7]; flow cytometry): 0.19772 µg/mL (≈ 0.163 µM)
EC50, IFN-production [8]: 0.10267 µg/mL (≈ 0.0845 µM)
EC50, IL-2 production [8]: 0.10335 µg/mL (≈ 0.0851 µM)
EC50, TNF-production [8]: 0.09058 µg/mL (≈ 0.0746 µM)
EC50, CD 11a expression [9]: 0.2044 µg/mL (≈ 0.168 µM)
EC50, CD 25 expression [9]: 0.121 µg/mL (≈ 0.0996 µM)
EC50, CD 71 expression [9]: 0.14984 µg/mL (≈ 0.123 µM)
EC50, CD 95 expression [9]: 0.12998 µg/mL (≈ 0.107 µM)
EC50, CD 154 expression [9]: 0.16087 µg/mL (≈ 0.132 µM)
only toxicological effect noted in all species [10]: diarrhea/loose feces
tolerability ([10]; rats, dogs, primates): well-tolerated
mutagenic activity [11]: does not exhibit mutagenic activity
mutagenic activity [12]: does not exhibit mutagenic activity
mutagenic activity [13]: does not exhibit mutagenic activity
embryotoxicity ([14]; at doses that resulted in maternal toxicity): corresponding embryotoxicity was observed
treatment-related malformations or alterations ([14]; pregnant rats and rabbits): no treatment-related malformations or alterations
examination of organs ([15]; 5 mg/kg): no significant abnormalities
examination of organs ([15]; 10 mg/kg): no significant abnormalities
increase in serum creatinine levels ([15]; 15 mg/kg/day): did not result in any significant increase
examination of organs ([15]; 3 female rabbits that completed the study, 15 mg/kg): No changes
Percent Change in Serum Creatine Levels Over Baseline ([15]; male rabbits, 10 mg/kg, Day 15): +1%
Percent Change in Serum Creatine Levels Over Baseline ([15]; male rabbits, 10 mg/kg, Day 30): +10%
examination of organs: spermatogenesis ([15]; male rabbits, 15 mg/kg): a decrease in spermatogenesis
Percent Change in Serum Creatine Levels Over Baseline ([15]; male rabbits, 15 mg/kg, Day 15): −19%
Percent Change in Serum Creatine Levels Over Baseline ([15]; male rabbits, 15 mg/kg, Day 30): −11%
hematological parameters ([15]; rabbit, in vivo): No significant changes
